EC50 data for one compound are collected here from patent US11149024B2, “Synthesis of Mcl-1 inhibitor” (ASTRAZENECA AB, priority 2017, dated 2021).

Holding throughout (format): cell-based
Test [1] has as its system MOLP-8 (multiple myeloma) cells. In words: Caspase Activity assay (Caspase-Glo 3/7), MOLP-8. The following applies: Homo sapiens; MOLP-8 cells, 6 h treatment, induction of apoptosis. As for the experimental part: (§1) Caspase Activity assay: This is a cell assay to measure the induction of apoptosis in MOLP-8 (multiple myeloma), KMS-12-BM (multiple myeloma), MV4; 11 (acute myeloid leukemia), and NCI-H23 (non-small cell lung cancer) cells after 6 h treatment with Mcl-1 inhibitors. On the first day, 3000 (MOLP-8, KMS-12-BM, MV4; 11) or 1250 (NCI-H23) cells/well were seeded with 50 μL of growth media (IMDM+10% FBS+2 mM L-Glu for MV4; 11 and RPMI-1640+10% FBS+2 mM L-Glu for all others) in 384-well white microplates, and incubated overnight (37° C., 5% C02, 80% RH). On the second day, the cells were treated with Compound I using an ECHO acoustic liquid handler (10 point half-log serial dilution, 31.5 μM top concentration, 0.3% final DMSO concentration). After 6 h incubation (37° C., 5% C02, 80% RH), 25 μL of Caspase-Glo 3/7 reagent (Promega) was added into each well, and plates were incubated at room temperature for 30 min protected from light. Luminescence was recorded using an Infinite M200 microplate reader (Tecan) with a 100 ms integration time.

The test system of test [2] is KMS-12-BM (multiple myeloma) cells. In words: Caspase Activity assay (Caspase-Glo 3/7), KMS-12-BM. To be noted: Homo sapiens; KMS-12-BM cells, 6 h treatment, induction of apoptosis. As for the experimental part:
as §1

In test [3] the test system is MV4; 11 (acute myeloid leukemia) cells. In words: Caspase Activity assay (Caspase-Glo 3/7), MV4; 11. To be noted: Homo sapiens, 11 cells, 6 h treatment, induction of apoptosis. As for the experimental part: as §1
The subject of test [4] is NCI-H23 (non-small cell lung cancer) cells. In words: Caspase Activity assay (Caspase-Glo 3/7), NCI-H23. To be noted: Homo sapiens, 6 h treatment, induction of apoptosis. As for the experimental part: as §1

`Cc1c2c(nn1C)CSCc1cc(n(C)n1)CSc1cc(c3ccccc3c1)OCCCc1c(C(=O)O)n(C)c3c-2c(Cl)ccc13` (atropisomer, axis not shown; (Ra)) [Compound I, (Ra)-(+)-17-chloro-5,13,14,22-tetramethyl-28-oxa-2,9-dithia-5,6,12,13,22-pentaazaheptacyclo[27.7.1.1^4,7.0^11,15.0^16,21.0^20,24.0^30,35]octatriaconta-1(37),4(38),6,11,14,16,18,20,23,29,31,33,35-tridecaene-23-carboxylic acid]: the EC50 is 30 nM in test [1], 43 nM in test [2], 20 nM in test [3] and 193 nM in test [4].
